In publication PMC8146408 (Viruses, 2021):
Values after ≈ are worked out from the molar mass of the structure shown.

How the values were obtained:
Cytotoxicity assay (XTT) = assay type: cell-based; conditions: human, HepG2 cells, XTT; mean ± SD, at least two independent experiments; read-out: CC50 (concentration of a compound causing 50% cytotoxicity)
[1] = Aqueous solubility (thermodynamic, DPBS); assay type: physicochemical; conditions: Dulbecco's Phosphate-Buffered Saline (DPBS), aqueous buffer, thermodynamic from solid, pH 7.2, n = 3
[2] = Plasma stability, human plasma; assay type: in vitro ADME; conditions: pH 7.4, n = 3, read-out: Plasma Stability t1/2
HepG2 cells = test: Cytotoxicity assay (XTT); assay type: cell-based; conditions: for Concentration without cytotoxicity: cytotoxicity assay
HBV Cp (C150 dimer) = biological target: T1, HBV Cp (C150 dimer) (Hepatitis B virus genotype D subtype adw, UniProt P03147, R150C); test: Thermal shift assay (TSA); assay type: binding; conditions: 20 µM compound, 1% DMSO
T1 construct: made in house; host or cells: E. coli BL21 (DE3), pET11a
T1 sequence (P03147 1-150 R150C): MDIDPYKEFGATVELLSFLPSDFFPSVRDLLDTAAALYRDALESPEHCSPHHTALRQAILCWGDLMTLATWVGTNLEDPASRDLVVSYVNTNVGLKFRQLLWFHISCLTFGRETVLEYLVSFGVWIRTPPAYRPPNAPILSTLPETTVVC

[3] = Plasma stability, mouse plasma; assay type: in vitro ADME; conditions: CD-1, pH 7.4, n = 3, read-out: Plasma Stability t1/2
[4] = Microsomal stability, mouse liver microsomes; assay type: in vitro ADME; conditions: pH 7.4, cofactor NADPH, n = 3, read-out: Microsomal Stability t1/2
HBV replication = test: Antiviral assay (HBV replication luciferase reporter in HuH-7 cells); assay type: cell-based, Hepatitis B virus; conditions: mean ± SD, at least two independent experiments
[5] = Microsomal stability, human liver microsomes; assay type: in vitro ADME; conditions: pH 7.4, cofactor NADPH, n = 3, read-out: Microsomal Stability t1/2

Cc1cc(NC(=O)c2cc(C#N)c(=O)[nH]c2C)ccc1F [ZW-1840]
CC50 (Cytotoxicity assay (XTT)): > 100 µM

Cc1cc(NC(=O)c2cnc3nc4ccccc4n3c2C)ccc1F [ZW-1841]
solubility at 72 h [1]: 0.31 ± 0.03 µM (≈ 0.104 µg/mL)
half-life at 1 µM [2]: > 6 h
Concentration without cytotoxicity (HepG2 cells): ≥ 100 µM
CC50 (Cytotoxicity assay (XTT)): > 100 µM
TSA profile (effect on HBV Cp melting curve) (HBV Cp (C150 dimer)): bind to HBV Cp and affect capsid formation and stability
half-life at 1 µM [3]: > 6 h
half-life at 1 µM [4]: 0.543 ± 0.0267 h
EC50 (concentration of a compound inhibiting HBV replication by 50%) (HBV replication): single-digit
half-life at 1 µM [5]: > 2 h

Cc1cn2c(C)c(C(=O)Nc3ccc(F)c(C)c3)cnc2n1 [ZW-1842]
CC50 (Cytotoxicity assay (XTT)): > 100 µM

CC1=C(C(=O)Nc2ccc(F)c(C)c2)C=Nc2ccccc2N1 [ZW-1843]
CC50 (Cytotoxicity assay (XTT)): > 100 µM

CSc1c(C(=O)Nc2ccc(F)c(C)c2)c(C)[nH]c(=O)c1C#N [ZW-1845]
CC50 (Cytotoxicity assay (XTT)): > 100 µM

Cc1cc(NC(=O)c2c(C)[nH]c(=O)c3c(N)n[nH]c23)ccc1F [ZW-1847]
solubility at 72 h [1]: 2.14 ± 0.03 µM (≈ 0.675 µg/mL)
half-life at 1 µM [2]: > 6 h
Concentration without cytotoxicity (HepG2 cells): ≥ 100 µM
CC50 (Cytotoxicity assay (XTT)): > 100 µM
TSA profile (effect on HBV Cp melting curve) (HBV Cp (C150 dimer)): bind to HBV Cp and affect capsid formation and stability
half-life at 1 µM [3]: > 6 h
half-life at 1 µM [4]: > 2 h
EC50 (concentration of a compound inhibiting HBV replication by 50%) (HBV replication): single-digit
half-life at 1 µM [5]: > 2 h

CC1Oc2c(cccc2C(=O)Nc2cccc(C(F)F)c2)NC1=O (centres unmarked) [ZW-1888]
CC50 (HepG2 cells; HepG2 cells, XTT, mean ± SD, at least two independent experiments, read-out: CC50 (concentration of a compound causing 50% cytotoxicity)): 46.6 ± 2.4 µM
CC50 (Cytotoxicity assay (XTT)): 47 µM
TSA profile (effect on HBV Cp melting curve) (HBV Cp (C150 dimer)): bind to HBV Cp and affect capsid formation and stability

O=C1NC2(CCCC2)C(=O)N1Cc1cn(-c2ccccc2)nc1-c1ccccc1 [ZW-1889]
CC50 (Cytotoxicity assay (XTT)): 58.2 ± 5.6 µM

Cc1cc(C)c(CNC(=O)c2cn(Cc3ccccc3)nc2-c2ccccc2)c(=O)[nH]1 [ZW-1918]
CC50 (Cytotoxicity assay (XTT)): 47.6 ± 0.2 µM

COc1cccc(N2CC(C(=O)Nc3cccc(Cl)c3C)CC2=O)c1 (centres unmarked) [ZW-1929]
CC50 (Cytotoxicity assay (XTT)): 41.3 ± 1.7 µM

Cc1cccc(NC(=O)c2cccc(CN3C(=O)CNC3=O)c2)c1 [ZW-1946]
CC50 (Cytotoxicity assay (XTT)): 44.1 ± 0.6 µM
